# Experimental data published in patent publication US20250100977A1, “MERCAPTOPYRIMIDINE COMPOUNDS THAT INHIBIT NONHOMOLOGOUS END JOINING AND METHODS THEREOF” (INDIAN INSTITUTE OF SCIENCE, priority 2021, published 2025).
# Values joined by “and” are separate entries in the source; they are usually repeats but may differ in a detail not shown here. Equal entries are not always repeated. Where two headings read alike, the source gives them in different places.
# How the values were obtained:
# rat testicular extracts = assay: Inhibition of end joining of rat testicular extracts (NHEJ); format: biochemical; conditions: for Inhibition of end joining (in words): 200 μM; for Inhibition of end joining (no joined product observed): 500 μM, rat testicular extract; for End joining after Ligase IV added back to inhibited testicular extract: complementation with purified Ligase IV/XRCC4
# Description: The compounds of the present invention were tested for their effects on inhibition of DNA end joining reactions using rat tissue extracts and purified DNA Ligase IV/XRCC4. Rat testicular extracts were prepared from testes of 4-6 week old male Wistar rats, Rattus norvegicus using ammonium sulphate precipitation method. To determine end joining of cell-free extracts, radiolabeled double-stranded (ds) oligomeric DNA substrate was incubated with rat testicular extract at 25° C. in suitable NHEJ buffer. Extracts were incubated for 30 min with the compounds of Formula I (01-41, 500 μM) as prepared in Example 1, and then radioactive DNA substrate was added to the reaction mixture and incubated for 1 h at 25° C. Reactions were stopped using EDTA, and products were purified using phenol: chloroform extraction and loaded on denaturing polyacrylamide gel. […] Joining efficiency was calculated using the intensity of product bands (150 bp or higher) in individual lanes in Multi Gauge software as compared to control (lanes 2,3). Lane 1 denotes radioactive substrate in absence of protein or inhibitor, while M denotes radiolabeled 50 bp DNA ladder.
# Effects of these compounds on NHEJ and Ligase IV mediated joining were evaluated (FIG. 4A-K). The reactions were terminated by EDTA (10 mM), products were purified using phenol/chloroform, precipitated with chilled ethanol and glycogen, and resolved on 8% denaturing PAGE. The gel was dried, exposed, and signal was detected using phosphor Imager FLA9000 (Fuji, Japan), and quantified in MultiGauge software expressed as Photo Stimulated Luminescence Units (PSLU). Inhibition of end joining was reported at 200 μM and 100 μM, respectively for SCR116 and SCR132 (FIGS. 4A, B, C and D), with >50% inhibition at 200 and 100 μM concentrations, respectively. […] FIG. 4K depict the purification profile of Ligase IV and XRCC4. Further FIGS. 4L-M represent inhibition of end joining catalysed by (FIG. 4L) purified Ligase III/XRCCI in presence of SCR116 and SCR132 (50, 100, 200, 500, 1000 μM) and (FIG. 4M) by purified Ligase I in presence of increasing concentrations of SCR116 and SCR132 (10, 50, 100, 200, 500, 1000 μM).
# Reh = assay: Cytotoxicity in Reh; format: cell-based; conditions: 48 h
# Description: The compounds of the present invention were screened initially in leukemic and cervical cancer cell lines (Table 1). […] In cervical cancer cell line HeLa, IC50 was 5 and 2 μM, respectively for SCR116 and SCR132 (FIG. 5A-B).
# (§1) Ligase IV specificity of the compounds of the present invention inside the cells were also determined using Ligase IV knock out (KO) cell line N114 compared to the wild type Nalm6 (Table 2, FIGS. 5C, D, E and F). […] Table 1 showing IC50 of SCR7 derivatives in cancer cell lines Nalm6 and HeLa. IC50 was calculated using GraphPad Prism software from the percentage of viable cells following treatment with the compounds at 48 h. Table 2 showing IC50 of SCR116 and SCR132 in a panel of 16 cancer cell lines.
# CEM = assay: Cytotoxicity in CEM; format: cell-based; conditions: Homo sapiens, CCRF-CEM; Table 2; read-out: IC50 in cancer cell lines, CEM
# Description: as §1
# SUDHL8 = assay: Cytotoxicity in SUDHL8; format: cell-based; conditions: Homo sapiens, SU-DHL-8; Table 2; read-out: IC50 in cancer cell lines, SUDHL8
# Description: as §1
# L1210 = assay: Cytotoxicity in L1210; format: cell-based; conditions: Mus musculus, L1210; Table 2; read-out: IC50 in cancer cell lines, L1210
# Description: as §1
# Molt4 = assay: Cytotoxicity in Molt4; format: cell-based, human; conditions: Homo sapiens, MOLT-4; Table 2; read-out: IC50 in cancer cell lines, Molt4
# Description: as §1
# MCF7 = assay: Cytotoxicity in MCF7; format: cell-based; conditions: Homo sapiens, MCF7; Table 2; read-out: IC50 in cancer cell lines, MCF7
# Description: as §1
# [1] = test system: V(D)J recombination in Nalm6 (pGG49); assay: V(D)J recombination in Nalm6 using pGG49; format: cell-based; conditions: for Fold reduction in recombination efficiency: vs vehicle control
# Description: Evaluation of efficiency of V(D)J recombination following treatment with SCR116 and SCR132 was carried out as depicted in FIGS. 6(A-C). Tables 4 and 5 summarize the effect of SCR116 (1 and 2 μM) and SCR132 (0.5 and 1 μM) on V(D)J recombination in Nalm6 using pGG49 and pGG51, respectively.
# HeLa cells = assay: Neutral comet assay in HeLa cells; format: cell-based; conditions: 24 h; SCR116 5 μM, SCR132 2 μM; radiation 0.5 Gy; vs control
# Description: FIG. 8(A-B) depicts accumulation of DSBs inside cells following treatment with the compounds. A. Representative images for HeLa cells subjected to neutral comet assay following treatment with SCR116 and SCR132 for 24 h. […] FIG. 8C, D are representative images for Nalm6 cells (C) and N114 cells (D) following treatment with SCR116 and SCR132 for 24 h. and FIG. 8E, F are scatter plot depicting quantification of percentage of 53BP1 foci treated with SCR116 (2, 5 μM) and SCR132 (1, 2 μM) in Nalm6 and N114.
# [2] = test system: Dalton's Lymphoma (DLA) tumor; assay: Mice allograft model, Dalton's Lymphoma (DLA); format: in vivo; conditions: for Tumor burden: oral, 15 and 25 mg/kg, pilot
# Description: The effect of oral dose of the compounds of the present disclosure on mice Erlich Ascites Carcinoma (EAC) and Dalton's Lymphoma (DLA) tumors were also evaluated (FIGS. 10A-F).
# SCC131 derived xenograft = assay: Mouse xenograft model, SCC131; format: in vivo; conditions: oral cancer SCC131 xenograft; 8 oral doses
# SCC084 derived xenograft = assay: Mouse xenograft model, SCC084; format: in vivo; conditions: oral cancer SCC084 xenograft; 8 oral doses
# HCT116 derived xenograft = assay: Mouse xenograft model, HCT116; format: in vivo
# [3] = Homo sapiens, REH, Table 2, read-out: IC50 in cancer cell lines, Reh
SMILES,Inhibition of end joining (in words) (rat testicular extracts),Inhibition of end joining (no joined product observed) (rat testicular extracts),End joining after Ligase IV added back to inhibited testicular extract (rat testicular extracts),Fold difference of IC50 in Reh to that of SCR7 (Reh) [fold],IC50 (Reh; [3]) [µM],IC50 (CEM) [µM],IC50 (SUDHL8) [µM],IC50 (L1210) [µM],IC50 (Molt4) [µM],IC50 (MCF7) [µM],Recombination efficiency (CA/A) ×100 ([1]; 1 μM),Fold reduction in recombination efficiency ([1]; 1 μM) [fold],DNA in the tail of the comet (HeLa cells),Tumor burden [2],Tumor volume (SCC131 derived xenograft),Tumor volume (SCC084 derived xenograft),Tumor volume (HCT116 derived xenograft),further results
"Nc1nc(S)nc(O)c1/N=C/c1ccc([N+](=O)[O-])s1 [Compound 16, (E)-6-amino-2-mercapto-5-(((5-nitrothiophen-2-yl)methylene)amino)pyrimidin-4-ol]",complete inhibition of end joining,showed inhibition of end joining,joining efficiency was restored,> 100,2.3,5.77,0.685,3.75,4.89,10,0.050,5.2,increased amount of DNA in the tail of the comet,reduced tumor burden,significant reduction in tumor volume,significant reduction in tumor volume,significant reduction in tumor volume,"IC50 (Reh; Table 2, listed as SCR116, read-out: IC50 in cancer cell lines, Reh): 2.34 µM; Recombination efficiency (CA/A) ×100 ([1]; 2 μM): 0.013; Fold reduction in recombination efficiency ([1]; 2 μM, listed as SCR116): 20 fold and 20.0 fold; Tumor size ([2]; selected oral dose 10 mg/kg): significant reduction in tumor size"
"Nc1nc(S)nc(O)c1/N=C/c1sc(Cl)nc1Cl [Compound 32, (E)-6-amino-5-(((2,4-dichlorothiazol-5-yl)methylene)amino)-2-mercaptopyrimidin-4-ol]",complete inhibition of end joining,showed inhibition of end joining,joining efficiency was restored,> 250,0.69,3.83,0.81,0.879,1.88,5,0.009,31.1,increased amount of DNA in the tail of the comet,reduced tumor burden,significant reduction in tumor volume,significant reduction in tumor volume,significant reduction in tumor volume,"IC50 (Reh; Homo sapiens, REH, read-out: IC50 in Reh cells): 0.69 µM; Recombination efficiency (CA/A) ×100 ([1]; 0.5 μM): 0.030; Fold reduction in recombination efficiency ([1]; 0.5 μM): 9.3 fold; Tumor size ([2]; selected oral dose 15 mg/kg): significant reduction in tumor size"
